Measurements taken from BigSolDB 2.1.

Clc1ccc(SSc2ccc(Cl)cc2)cc1
Conditions | solubility (mole fraction)
in acetone, 302.95 K | 0.102
in acetone, 308.05 K | 0.145
in acetone, 313.25 K | 0.208
in chloroform, 303.15 K | 0.122
in chloroform, 307.95 K | 0.174
in chloroform, 312.55 K | 0.243
in ethanol, 304.35 K | 0.000264
in ethanol, 307.45 K | 0.000783
in ethanol, 312.35 K | 0.00305
in ethanol, 317.35 K | 0.00786
in ethyl acetate, 303.95 K | 0.0201
in ethyl acetate, 307.9 K | 0.038
in ethyl acetate, 312.35 K | 0.0667
in ethyl acetate, 319.05 K | 0.117
in methanol, 303.15 K | 0.00014
in methanol, 307.65 K | 0.00061
in methanol, 314.15 K | 0.00259
in methanol, 318.95 K | 0.00552
in toluene, 303.2 K | 0.0219
in toluene, 307.85 K | 0.0446
in toluene, 314.05 K | 0.0864
in toluene, 317.55 K | 0.114
